Laboratory results published in PMC11990103, “Anticancer Activity and Safety Profile of Novel 1-(4-Fluorophenoxyacetyl)-4-substituted Thio/Semicarbazide Derivatives” (Molecules, 2025).

How the values were obtained:
[1] = system: LNCaP prostate cancer cell line; experiment: qRT-PCR relative gene expression; type: cell-based, human; details: 24 h, concentration corresponding to IC50
Experimental: (§1) An analysis was conducted to examine the impact of the thiosemicarbazide AB2 on LNCaP prostate cancer cells and G-361 melanoma cells, focusing on the expression of genes associated with oxidative stress, cell cycle regulation, DNA repair, and apoptosis. Superoxide dismutase (SOD2), catalase (CAT), and glutathione peroxidase 1 (GPX1) are critical antioxidant enzymes that protect cells from oxidative stress by neutralizing reactive oxygen species (ROS) and mitigating potential cellular damage. […] This indicates heightened activation of cell cycle arrest mechanisms, given that p21 acts as an important inhibitor of cyclin-dependent kinases essential for cell cycle progression. […] The contrasting alterations in CDKN1A and CYCD indicate a transition toward cell cycle arrest in response to AB2 (Figure 9B). The next assessed panel of genes includes those involved in DNA damage sensing and repair, specifically ATM and ATR. ATM and ATR are fundamental components of the DNA damage response, responsible for the detection and repair of double-strand and single-strand DNA breaks, respectively.
(§2) The last assessed panel of genes includes genes involved in the process of apoptosis. BAX is a protein that enhances apoptosis, a natural to eliminate damaged or cancer cells. On the other hand, BCL-2 prevents apoptosis, helping cancer cells survive and resist therapy. […] The decrease in BCL-2 expression, along with stable BAX levels, led to a higher BAX/BCL-2 ratio in comparison to the control.
(§3) The relative gene expression was quantitatively assessed using real-time PCR. […] Next, for cell lysis the 1 mL of TRIzol™ reagent (Invitrogen, Carlsbad, CA, USA) was added. RNA was isolated according to the Chomczynski and Sacchi method. The RNA was reverse transcribed using NG dART RT-PCR reagents (EURx, Gdańsk, Poland) according to the manufacturer’s instructions. Following the manufacturer’s recommendation, the qPCR reaction was conducted in triplicate in a 7500 fast real-time PCR machine (ThermoFisher, Waltham, MA, USA) using Fast SG/ROX qPCR Master Mix (2×) (EURx, Gdansk, Poland). 18SRNA and BACT were used as reference genes. Gene expression was evaluated using qRT-PCR and ΔΔCt. Statistical analysis was conducted using RQ values (RQ = […]).

[2] = system: G-361 melanoma cell line; experiment: qRT-PCR relative gene expression; type: cell-based, human; details: G-361, 24 h, concentration corresponding to IC50
Experimental: as §1, §2, §3

O=C(COc1ccc(F)cc1)NNC(=S)Nc1ccccc1Cl [AB2]
ATM gene expression [1]: downregulated
ATR gene expression [1]: downregulated
BAX gene expression [1]: did not differ from the control cultures
BAX/BCL-2 ratio in comparison to the control [1]: higher
BCL-2 gene expression [1]: significantly downregulated
CAT gene expression, increase [1]: ~6 fold
CDKN1A (p21) gene expression [1]: significantly upregulated
CYCD (cyclin D) gene expression [1]: notably downregulated
GPX1 gene expression [1]: moderate but significant rise
SOD2 gene expression, increase compared to control [1]: > 20 fold
TP53 gene expression [1]: significant downregulation
ATM gene expression [2]: downregulated
ATR gene expression [2]: downregulated
BAX gene expression [2]: did not differ from the control cultures
BAX/BCL-2 ratio in comparison to the control [2]: higher
BCL-2 gene expression [2]: significantly downregulated
CAT gene expression, increase [2]: approximately 8 fold
CDKN1A (p21) gene expression [2]: significantly upregulated
CYCD (cyclin D) gene expression [2]: notably downregulated
GPX1 gene expression [2]: moderate but significant rise
SOD2 gene expression, rise compared to control [2]: > 100 fold
TP53 gene expression [2]: significant downregulation
